Key:
[1] = tested on: stomach pacemaker potentials; test: MEA recording of pacemaker potentials (slow waves), isolated stomach; type: cell-based, Suncus murinus
Experimental: (§1) Pacemaker potentials were recorded extracellularly on a 60-channel MEA system using full-thickness GI segments isolated from Suncus murinus. Basic slow-wave parameters, including frequency, amplitude, slope, period, and power partitions, were derived. Signal regularity was also evaluated using detrended fluctuation analysis and sample entropy analysis.
(§2) Electrical recordings were taken after the animals were euthanised by carbon dioxide asphyxiation. […] The mesentery was removed, and the lumen contents were flushed with Krebs' medium. Segments (−1 cm) of duodenum, ileum, and colon were then isolated, but the stomach was kept intact. All tissue segments and the entire stomach were incubated in Krebs' medium containing nifedipine (1 μM; Sigma Aldrich, St Louis, MO, USA) for 15 min to inhibit smooth muscle activity. Pacemaker potentials were recorded using an MEA platform (MEA1060 1200×; Multichannel Systems, Reutlingen, Germany) as previously described. Briefly, tissues were placed onto the electrode field of an MEA chip (60-channel, 8×8 configuration, 3D-tip-shaped electrodes with a height of […] and an inter-electrode distance of 200 μm; Ayanda Biosystems SA, Lausanne, Switzerland). Intestinal segments were aligned horizontally to the recording electrode field, while the stomach was oriented with the antrum facing the recording electrode field. The chamber temperature was maintained at 37° C. and the sampling frequency was 1 kHz. […] All data were recorded and saved using MC_Rack (v 4.6.2, Multichannel Systems).
(§3) Data analysis included basic slow-wave feature extraction using a custom automated program. […] The time point of drug administration was automatically identified based on the signal disturbance. The period of signal disturbance (20 s before and 40 s after the peak of the disturbance) was excluded from the analysis. Data were filtered using a passband between 0.1 Hz and 1 Hz and a stopband between 0.01 Hz and 2 Hz. The basic slow-wave features extracted were similar to those extracted in the inventors' previous studies. However, instead of using several templates and scripts written in Microsoft Excel and Spike 2, a one-step automatic and blinded MATLAB programme was used for data analysis. There were four major changes to the data analysis process as compared to the inventors' previous studies. First, auto-identification of the drug disturbance time point was used, rather than manual identification. Second, standardised signal filters were built in MATLAB to match the entire data analysis pipeline. […] Frequency partitioning was performed by segmenting the power spectrum of 0-50 cpm into the following four segments: brady-rhythm (within the range 2-[DF−1] cpm), normal-rhythm ([DF±1] cpm), tachy-rhythm (within the range [DF+1]-40 cpm), and out-of-range frequencies (<2 cpm and >40 cpm). Third, waveforms were identified using the MATLAB ‘findpeaks’ function, with a minimum peak height of […] at baseline and […] after drug treatment, with a step time of 5.4 s for the intestine and 12 s for the stomach. The average peak-to-peak amplitude, slope, and period were derived for all detected waveforms. Fourth, propagation velocity was derived using phase-difference measurements, based on the auto-select seed electrode with the highest percentage of normal rhythms.
(§4) Dominant activation pattern identification included a phase-based analysis performed as previously described (Liu et al., 2021). Briefly, high-frequency spikes with amplitudes greater than […] were masked. Continuous frequencies were identified using continuous wavelet transformation, and the transformed data were used to plot spectrograms. […] High quality data were subjected to Hilbert transformation to identify the phase and frequency of the signals. Individual activation times were clustered using k-means clustering every 20 s and major activation patterns were grouped using a structural similarity index.

[2] = tested on: duodenum pacemaker potentials; test: MEA recording of pacemaker potentials (slow waves), isolated duodenum; type: cell-based, Suncus murinus; settings: for amplitude of slow waves: duodenum
Experimental: as §1, §2, §3, §4

[3] = duodenal tissues, 0.1-100 μM, p>0.05, n=5-9

Cl.NCCc1ccc(O)c(O)c1 [dopamine, 3-Hydroxytyramine hydrochloride]
representative spectrogram, effect ([1]; 100 μM): reduced the DP of the DF
wave fronts counted in representative spatio-temporal map (1 min) ([1]; 100 μM, 9 before treatment): ~10
DFA fluctuation function (smaller scale 3-25) ([1]; 100 μM, baseline 2.36±0.08, p<0.05, n=7): 2.27±0.16
number of groups of activation patterns ([1]; 100 μM, baseline 4.3±1.0, p<0.05, n=8): 5.3±1.0
average frequency (AF) ([1]; 100 μM, baseline 9.8±1.2, p<0.05, n=8): 11.8±1.8 cpm
percentage of tachy-rhythms ([1]; 100 μM, baseline 36.1±12.8, p<0.05, n=8): 60.2±15.4%
percentage of normal rhythms ([1]; 100 μM, baseline 55.1±7.2, p<0.01, n=8): 23.6±13.1%
dominant power (DP) of slow waves ([1]; 100 μM, baseline 888.0±691.5, p<0.05, n=8): 253.2±416.1 μV^2
percentage of dominant patterns (based on post-treatment data, FIG. 3E), change vs baseline ([1]; 100 μM, p>0.05, n=4): No significant differences
percentage of dominant baseline activation patterns, change vs baseline ([1]; 100 μM, p>0.05, n=4, FIG. 3D): No significant differences
average SampEn (larger scale 6-50), effect ([1]; 100 uM, p>0.05, n=7): did not change
average SampEn (smaller scale 1-5), effect ([1]; 100 uM, p>0.05, n=7): did not change
DFA fluctuation function (larger scale 26-46), effect ([1]; 100 μM, p>0.05, n=7): did not change
amplitude of slow waves, change vs baseline ([1]; 100 μM, p>0.05, n=8): No significant differences
dominant frequency (DF), change vs baseline ([1]; 100 μM, p>0.05, n=8): No significant differences
propagation velocities, effect ([1]; 100 μM, p>0.05, n=8): did not affect
slope of waveforms, change vs baseline ([1]; 100 μM, p>0.05, n=8): No significant differences
waveform period, change vs baseline ([1]; 100 μM, p>0.05, n=8): No significant differences
wave propagation in video (FIG. 11B), effect ([1]; 100 M): wave propagation was inhibited, and amplitudes were reduced
waveform period ([2]; duodenal tissues, 100 nM, baseline 2.52±0.21, p<0.05, n=7): 3.27 ± 0.47 s
DFA fluctuation function (smaller scale 3-25) ([2]; duodenal tissues, 100 nM, baseline 2.65±0.08, p<0.01, n=6): 2.51±0.05
percentage of tachy-rhythms ([2]; duodenal tissues, 100 nM, baseline 12.5±5.7, p<0.05, n=7): 2.1±0.7%
percentage of dominant baseline activation patterns, second pattern ([2]; duodenal tissues, 100 nM, baseline 23.3±5.7, p<0.05, n=7): 8.4±11.2%
average frequency (AF) ([2]; duodenal tissues, 100 nM, baseline 24.1±2.0, p<0.05, n=7): 20.9±0.7 cpm
dominant frequency (DF) of slow waves ([2]; duodenal tissues, 100 nM, baseline 27.1±2.2, p<0.05, n=7): 24.9±1.2 cpm
percentage of dominant baseline activation patterns, first pattern ([2]; duodenal tissues, 100 nM, baseline 32.3±11.8, p<0.01, n=7): 11.1±13.0%
percentage of brady-rhythms ([2]; duodenal tissues, 100 nM, baseline 35.7±10.3, p<0.0001, n=7): 87.2±7.7%
percentage of normal rhythms ([2]; duodenal tissues, 100 nM, baseline 46.1±11.2, p<0.001, n=7): 4.8±4.6%
slope of waveforms ([2]; duodenal tissues, 100 nM, baseline 321.7±95.5, p<0.01, n=7): 166.9±57.7 μV s^−1
DFA fluctuation function (larger scale 26-46) ([2]; duodenal tissues, 100 nM, baseline […], p<0.01, n=6): 1.98±0.11
DFA fluctuation function (larger scale 26-46) ([2]; duodenal tissues, 1 μM, baseline 1.74±0.32, p<0.05, n=7): 1.63±0.38
number of groups of activation patterns ([2]; duodenal tissues, 1 μM, baseline 6.2±1.0, p<0.05, n=6): 6.8±1.0
percentage of brady-rhythms ([2]; duodenal tissues, 1 μM, baseline 25.8±12.3, p<0.05, n=6): 53.7±26.6%
percentage of dominant baseline activation patterns, first pattern ([2]; duodenal tissues, 1 μM, baseline 33.7±13.1, p<0.05, n=6): 12.8±9.4%
representative spectrogram, effect on DF ([2]; duodenal tissues, 10 μM): slightly shifted towards a lower frequency
wave fronts counted in representative spatio-temporal map (1 min) ([2]; duodenal tissues, 10 μM, 30 before treatment): 27
average SampEn (smaller scale 1-5) ([2]; duodenal tissues, 10 μM, baseline 0.58±0.05, p<0.05, n=7): 0.60±0.04
number of groups of activation patterns ([2]; duodenal tissues, 10 μM, baseline 5.9±0.7, p<0.05, n=9): 6.4±0.5
percentage of dominant patterns (based on post-treatment data, FIG. 3E), second pattern ([2]; duodenal tissues, 10 μM, baseline 10.2±9.1, p<0.05, n=5): 18.5±2.3%
percentage of normal rhythms ([2]; duodenal tissues, 10 μM, baseline 52.4±14.7, p<0.05, n=9): 7.8±6.4%
slope of waveforms ([2]; duodenal tissues, 10 μM, baseline 202.4±50.6, p<0.05, n=9): 153.9±47.7 μV s^−1
DFA fluctuation function (larger scale 26-46) ([2]; duodenal tissues, 100 μM, baseline 1.46±0.29, p<0.05, n=9): 1.36±0.31
waveform period ([2]; duodenal tissues, 100 μM, baseline 2.44±0.72, p<0.05, n=5): 3.26 ± 1.29 s
percentage of dominant baseline activation patterns, third pattern ([2]; duodenal tissues, 100 μM, baseline 15.2±2.1, p<0.05, n=4): 5.9±3.6%
percentage of dominant patterns (based on post-treatment data, FIG. 3E), third pattern ([2]; duodenal tissues, 100 μM, baseline 20.3±10.8, p<0.05, n=4): 7.5±5.8%
average frequency (AF) ([2]; duodenal tissues, 100 μM, baseline 25.1±3.7, p<0.05, n=5): 22.2±5.4 cpm
dominant frequency (DF) of slow waves ([2]; duodenal tissues, 100 μM, baseline 28.6±4.1, p<0.05, n=5): 26.3±5.2 cpm
percentage of dominant baseline activation patterns, first pattern ([2]; duodenal tissues, 100 μM, baseline 29.3±5.5, p<0.01, n=4): 7.0±7.0%
percentage of brady-rhythms ([2]; duodenal tissues, 100 μM, baseline 43.3±11.6, p<0.05, n=5): 68.6±29.0%
slope of waveforms ([2]; duodenal tissues, 100 μM, baseline 322.2±108.6, p<0.01, n=5): 182.5±61.7 μV s^−1
percentage of dominant baseline activation patterns, second pattern ([2]; duodenal tissues, 100 μM, baseline […], p<0.05, n=4): 7.4±4.1%
dominant power (DP), change vs baseline [2, 3]: No significant differences
propagation velocities, effect [2, 3]: did not affect
average SampEn (larger scale 6-50), effect ([2]; duodenal tissues, 0.1-100 μM, p>0.05, n=6-9): did not change
DFA fluctuation function (smaller scale 3-25) ([2]; duodenal tissues, 100 M, baseline 2.26±0.16, p<0.05, n=9): 2.18±0.16
percentage of tachy-rhythms ([2]; duodenal tissues, 100 M, baseline 11.0±5.2, p<0.05, n=5): 5.4±4.9%
amplitude of slow waves ([2]; 100 nM, baseline 193.0±54.9, p<0.01, n=7): 114.1±37.7 μV
amplitude of slow waves ([2]; 10 μM, baseline 117.6±24.2, p<0.05, n=9): 97.4±13.7 μV
amplitude of slow waves ([2]; 100 μM, baseline 199.3±60.5, p<0.01, n=5): 121.1±27.3 μV
